pEC50: −log10 of the molar value.
Tests used:
human GLP-1R receptor = target: T1, human GLP-1R receptor (Homo sapiens, UniProt P43220); experiment: GLP-1R low expression cell assay (cAMP TR-FRET, CHO-K1_hGLP-1Rlow_clone10 cells); format: cell-based; conditions: for pEC50: cAMP TR-FRET, 30 min at 25° C.; for Emax: maximum activation relative to control GLP-1 peptide agonist
T1 construct: expressed in transfected cells
In short: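 CHO-K1 cells stably expressing low surface human GLP-1R (clone10), 1,000 cells/well, exposed to 10-point 3-fold compound dilutions for 30 min at 25 °C. cAMP measured by TR-FRET (Eu-cAMP tracer/ULight-anti-cAMP, 15 min). EC50 from Hill fit of duplicate percent activation relative to a parallel GLP-1 control agonist.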

[1] = Rat pharmacokinetics, oral dosing; format: in vivo, Sprague-Dawley rats; conditions: male, Sprague-Dawley, oral dosing at 3 mg/kg, plasma; for half-life: read-out: Rat T1/2
Protocol: Intravenous dosing: Compounds were formulated at 1.0 mg/mL in a solution comprising 5% polyethylene glycol 400 and 95% (12% (w/v) sulfobutyl-β-cyclodextrin in water) (v/v). Formulated compounds were sterile filtered through a 0.22 micron filter before dosing. Compounds were administered to male, 7-11-week-old Sprague-Dawley rats by jugular vein cannula infusion over 30 minutes at a dose of 1 mg/kg. Oral dosing: Compounds were formulated at 1.0 mg/mL in a solution comprising 5% polyethylene glycol 400 and 95% (12% (w/v) sulfobutyl-β-cyclodextrin in water) (v/v). Formulated compounds were administered to male, 7-11 week old Sprague-Dawley rats by oral gavage at a dose of 10 mg/kg or 3 mg/kg.
Sample collection: Blood collections of about 0.2 mL per time point were performed from jugular vein or other suitable site of each animal, into pre-chilled commercial EDTA-K2 tubes and placed on wet ice until centrifugation. Blood samples were processed for plasma by centrifugation at approximately 4° C., 3,200 g for 10 min. Plasma was collected and transferred into pre-labeled 96 well plate or polypropylene tubes, quick frozen over dry ice and kept at −60° C. or lower until
Data analysis: Plasma concentration versus time data was plotted in graph and analyzed by non-compartmental approaches using the Phoenix WinNonlin 6.3 software program. Related PK parameters were calculated according to dosing route, e.g., CL, Vdss and C0 for intravenous administration, Cmax, Tmax or % F for extravascular administration, and T1/2, AUC(0-t), AUC(0-inf), MRT(0-t), MRT(0-inf) for all routes.

T1 sequence (P43220 24-463): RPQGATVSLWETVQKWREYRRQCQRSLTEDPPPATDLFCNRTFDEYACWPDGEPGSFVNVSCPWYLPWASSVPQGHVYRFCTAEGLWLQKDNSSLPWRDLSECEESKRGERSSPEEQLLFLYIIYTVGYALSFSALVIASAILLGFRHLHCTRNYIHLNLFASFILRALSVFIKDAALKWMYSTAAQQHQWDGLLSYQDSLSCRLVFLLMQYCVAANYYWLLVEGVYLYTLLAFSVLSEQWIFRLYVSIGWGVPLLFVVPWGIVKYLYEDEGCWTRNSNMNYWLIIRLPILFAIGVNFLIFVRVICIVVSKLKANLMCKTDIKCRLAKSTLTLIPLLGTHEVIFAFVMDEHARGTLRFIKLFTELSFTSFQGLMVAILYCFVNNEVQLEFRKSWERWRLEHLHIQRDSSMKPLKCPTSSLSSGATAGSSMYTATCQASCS

pEC50 (human GLP-1R receptor)	Emax (human GLP-1R receptor) [%]	AUC [1] [ng·h/mL]	Cmax [1] [ng/mL]	half-life [1] [h]	bioavailability [1] [%]	SMILES
> 8.00	> 85	< 500	< 500	1.5 to 2.5	25 to 50	COc1cc(C(=O)O)cc2c1nc(CN1CC[C@@H](c3cccc4c3O[C@@](C)(c3ccc(Cl)cn3)O4)[C@@H]3C[C@@H]31)n2C[C@@H]1CCO1 [Compound 89, 2-(((1S,5R,6S)-5-((S)-2-(5-Chloropyridin-2-yl)-2-methylbenzo[d][1,3]dioxol-4-yl)-2-azabicyclo[4.1.0]heptan-2-yl)methyl)-4-methoxy-1-(((S)-oxetan-2-yl)methyl)-1H-benzo[d]imidazole-6-carboxylic acid]
> 8.00	> 85	< 500	< 500	1.5 to 2.5	< 25	C[C@]1(c2ccc(Cl)cn2)Oc2cccc(C3CCN(Cc4nc5c(O)cc(C(=O)O)cc5n4Cc4cncs4)CC3)c2O1 [Compound 90, (S)-2-((4-(2-(5-chloropyridin-2-yl)-2-methylbenzo[d][1,3]dioxol-4-yl)piperidin-1-yl)methyl)-4-hydroxy-1-(thiazol-5-ylmethyl)-1H-benzo[d]imidazole-6-carboxylic acid]
6.00 to 7.00	> 85		> 5000	1.5 to 2.5	> 85	Cn1c(CN2CCC(c3cccc(OCc4ccc(C#N)cc4F)c3)CC2)nc2c(OC(F)F)cc(C(=O)O)cc21 [Compound 111, 2-((4-(3-((4-Cyano-2-fluorobenzyl)oxy)phenyl)piperidin-1-yl)methyl)-4-(difluoromethoxy)-1-methyl-1H-benzo[d]imidazole-6-carboxylic acid]
> 8.00	> 85	500 to 2500	1000 to 2000	1.5 to 2.5	50 to 85	Cn1c(CN2CCC(c3cccc(OCc4ccc(C#N)cc4F)n3)CC2)nc2c(OCF)cc(C(=O)O)cc21 [Compound 113, 2-((4-(6-((4-Cyano-2-fluorobenzyl)oxy)pyridin-2-yl)piperidin-1-yl)methyl)-4-(fluoromethoxy)-1-methyl-1H-benzo[d]imidazole-6-carboxylic acid]
> 8.00	> 85	2500 to 10000	2000 to 5000	< 1.5	50 to 85	Cn1c(CN2CCC(c3cccc(OCc4ccc(C#N)cc4F)n3)CC2)nc2c(OC(F)F)cc(C(=O)O)cc21 [Compound 127, 2-((4-(6-((4-Cyano-2-fluorobenzyl)oxy)pyridin-2-yl)piperidin-1-yl)methyl)-4-(difluoromethoxy)-1-methyl-1H-benzo[d]imidazole-6-carboxylic acid]
> 8.00	> 85	500 to 2500	500 to 1000	1.5 to 2.5	25 to 50	Cn1c(N(C)[C@H]2CC[C@H](c3cccc(OCc4ccc(C#N)cc4F)n3)CC2)nc2c(OC(F)F)cc(C(=O)O)cc21 [Compound 133, 2-(((1r,4r)-4-(6-((4-Cyano-2-fluorobenzyl)oxy)pyridin-2-yl)cyclohexyl)(methyl)amino)-4-(difluoromethoxy)-1-methyl-1H-benzo[d]imidazole-6-carboxylic acid]
> 8.00	> 85		> 5000	≥ 2.5	> 85	Cn1c(CN2CCC(c3cccc(OCc4ccc(Cl)cc4F)n3)CC2)nc2c(OC(F)F)cc(C(=O)O)cc21 [Compound 136, 2-((4-(6-((4-Chloro-2-fluorobenzyl)oxy)pyridin-2-yl)piperidin-1-yl)methyl)-4-(difluoromethoxy)-1-methyl-1H-benzo[d]imidazole-6-carboxylic acid]
7.00 to 8.00	> 85	2500 to 10000	> 5000	1.5 to 2.5	> 85	Cn1c(CN2CCC(c3ccc(F)c(OCc4ccc(C#N)cc4F)n3)CC2)nc2c(OC(F)F)cc(C(=O)O)cc21 [Compound 137, 2-((4-(6-((4-Cyano-2-fluorobenzyl)oxy)-5-fluoropyridin-2-yl)piperidin-1-yl)methyl)-4-(difluoromethoxy)-1-methyl-1H-benzo[d]imidazole-6-carboxylic acid]
> 8.00	> 85		> 5000	1.5 to 2.5	50 to 85	COc1cc(C(F)(F)F)ccc1COc1cccc(C2CCN(Cc3nc4c(OC(F)F)cc(C(=O)O)cc4n3C)CC2)n1 [Compound 154, 4-(Difluoromethoxy)-2-((4-(6-((2-methoxy-4-(trifluoromethyl)benzyl)oxy)pyridin-2-yl)piperidin-1-yl)methyl)-1-methyl-1H-benzo[d]imidazole-6-carboxylic acid]
> 8.00	> 85	2500 to 10000	2000 to 5000	< 1.5	50 to 85	COc1cc(C#N)ccc1COc1cccc(C2CCN(Cc3nc4c(OC(F)F)cc(C(=O)O)cc4n3C)CC2)n1 [Compound 156, 2-((4-(6-((4-Cyano-2-methoxybenzyl)oxy)pyridin-2-yl)piperidin-1-yl)methyl)-4-(difluoromethoxy)-1-methyl-1H-benzo[d]imidazole-6-carboxylic acid]
> 8.00	> 85		> 5000	1.5 to 2.5	50 to 85	[2H]C([2H])([2H])Oc1cc(C(=O)O)cc2c1nc(CN1CCC(c3cccc(OCc4ccc(Cl)cc4F)n3)CC1)n2C [Compound 207, 2-((4-(6-((4-chloro-2-fluorobenzyl)oxy)pyridin-2-yl)piperidin-1-yl)methyl)-4-(methoxy-d3)-1-methyl-1H-benzo[d]imidazole-6-carboxylic acid]
7.00 to 8.00	> 85		> 5000	1.5 to 2.5	50 to 85	Cn1c(CN2CCC(c3ccc(F)c(OCc4ccc(Cl)cc4F)c3)CC2)nc2c(OC(F)F)cc(C(=O)O)cc21 [Compound 216, 2-((4-(3-((4-Chloro-2-fluorobenzyl)oxy)-4-fluorophenyl)piperidin-1-yl)methyl)-4-(difluoromethoxy)-1-methyl-1H-benzo[d]imidazole-6-carboxylic acid]
> 8.00	> 85		2000 to 5000	≥ 2.5	> 85	Cn1c(CN2CCC(c3cccc(OCc4ccc(Cl)cc4F)n3)CC2)nc2c(OCF)cc(C(=O)O)cc21 [Compound 225, 2-((4-(6-((4-Chloro-2-fluorobenzyl)oxy)pyridin-2-yl)piperidin-1-yl)methyl)-4-(fluoromethoxy)-1-methyl-1H-benzo[d]imidazole-6-carboxylic acid]
> 8.00	> 85		> 5000	≥ 2.5	> 85	COc1cc(Cl)ccc1COc1cccc(C2CCN(Cc3nc4c(OC(F)F)cc(C(=O)O)cc4n3C)CC2)n1 [Compound 226, 2-((4-(6-((4-Chloro-2-methoxybenzyl)oxy)pyridin-2-yl)piperidin-1-yl)methyl)-4-(difluoromethoxy)-1-methyl-1H-benzo[d]imidazole-6-carboxylic acid]
